Molecular target: 3-phosphoinositide-dependent protein kinase 1 (PDPK1) (Homo sapiens) (UniProt O15530)
Test: Inhibition of PDK1

- IC50: > 10 µM
SMILES: COc1cc(Nc2c(C#N)cnc3cc(/C=C/CCN4CCN(C)CC4)c(OC)cc23)c(Cl)cc1Cl [(E)-4-(2,4-dichloro-5-methoxyphenylamino)-6-methoxy-7-(4-(4-methylpiperazin-1-yl)but-1-enyl)quinoline-3-carbonitrile]
